Columns and labels:
[1] = biological target: T1, PI3K-delta (Homo sapiens, UniProt O00329); test: HTRF PI3K biochemical assay, delta isoform; conditions: form screened (neutral or TFA salt) given, read-out: PI3Kdelta IC50
T1 construct: purchased Upstate; Millipore 14-604
From the text: HTRF PI3K Biochemical Assay to Measure Intrinsic Potency of Compound Inhibitors
This assay was developed and further optimized from a kit produced by Upstate (Millipore catalog #33-047) and has been configured for HTS and SAR screening. Briefly, this procedure exploits the exquisite specificity and high affinity binding of enzyme reaction substrate phosphatidyl(3,4,5)triphosphate (PIP3) to the GRP1 pleckstrin homology (PH) domain to generate the signal. In the absence of PIP3, an HTRF (Homogeneous Time-Resolved Fluorescence energy transfer) complex is formed consisting of europium (Eu)-labeled anti-GST, GSTtagged GRP1-PH domain, biotin-PIP3 and streptavidin conjugated APC. The native PIP3 produced by PI3-Kinase activity disrupts in a competitive manner the biotin-PIP3 from the PH domain, resulting in the loss of energy transfer (HTRF complex) and a decrease in the signal. The format of this assay is the same for all 4 isoforms of PI3K; the differences lie in the concentration of enzyme used to achieve robust assay window. The alpha, beta, and delta assays are run at 0.5, 1, and 0.3 nM enzymes and the gamma assay is run at 5 nM enzyme. The ATP concentration is 100 uM in the alpha, beta, and delta assays and 50 uM ATP in the gamma assay. All reactions are run at 5 uM PIP2.
(§1) Compounds are serially diluted (3-fold in 100% DMSO) across a 384-well polypropylene source plated from column 3 to column 12 and column 13 to column 22, to yield 10 concentration dose response for each test compound. Columns 1, 2, 23 and 24 contain either only DMSO or pharmacological known control inhibitor.
(§2) The PI3-Kinase biochemical assay was optimized using the HTRF kit provided by Upstate (Millipore). The assay kit contains six reagents: 1) 4× Reaction Buffer; 2) native PIP2 (substrate); 3) Stop (EDTA); 4) Detection Mix A (Streptavidin-APC); 5) Detection Mix B (Eu-labeled Anti-GST plus GST-tagged PH-domain); 6) Detection Mix C.
(§3) PI3Kinase Reaction Buffer is prepared by dilution the stock 1:4 with de-ionized water. […] Enzyme addition and compound pre-incubation are initiated by the addition of 1.25 ul of PI3K (at twice its final concentration) in the 1× reaction buffer to all wells using a BioRaptor. Plates are incubated at room temperature for 15 minutes. Reactions are initiated by addition of 1.25 ul of 2× substrate solution (PIP2 and ATP in 1× reaction buffer) using BioRaptor. Plates are incubated in humidified chamber at room temperature for one hour. Reactions are quenched by addition of 0.625 uL of stop solution to all wells using the BioRaptor. The quenched reactions are then processed to detect product formation by adding 0.625 uL of Detection Solution to all wells using the BioRaptor (Detection mix C, Detection Mix A, and Detection Mix B combined together in an 18:1:1 ratio prepared 2 hours prior to use).
(§4) The loss of the HTRF signal is due to the displacement of biotinylated-PIP3 from the PH domain by the PI3K-dependent conversion of PIP2 to PIP3. This loss of signal is nonlinear with respect to both increasing product and time. This non-linear detection will impact accuracy of IC50 calculations; therefore, there is a need for a correction factor to obtain more accurate IC50 values. This correction is derived from a PIP3 standard curve run in a separate assay plate. All data were calculated using the ratio of acceptor (APC) to donor (Europium) fluorescence in each well of the assay plate. […] An IC50 was then calculated fitting the % inhibition data to the equation: % inhibition=min+(Max−min)/1+([inhibitor]/IC50)^n) where min is the % inhibition with inhibitor, max is the signal in DMSO control, and n is the Hill slope.

[2] = biological target: T2, PI3K-alpha (Homo sapiens, UniProt P42336); test: HTRF PI3K biochemical assay, alpha isoform; conditions: ratio PI3K-alpha IC50 value / PI3K-delta IC50 value
T2 construct: purchased Upstate; Millipore 14-602
T2 sequence (P42336 whole entry, canonical isoform): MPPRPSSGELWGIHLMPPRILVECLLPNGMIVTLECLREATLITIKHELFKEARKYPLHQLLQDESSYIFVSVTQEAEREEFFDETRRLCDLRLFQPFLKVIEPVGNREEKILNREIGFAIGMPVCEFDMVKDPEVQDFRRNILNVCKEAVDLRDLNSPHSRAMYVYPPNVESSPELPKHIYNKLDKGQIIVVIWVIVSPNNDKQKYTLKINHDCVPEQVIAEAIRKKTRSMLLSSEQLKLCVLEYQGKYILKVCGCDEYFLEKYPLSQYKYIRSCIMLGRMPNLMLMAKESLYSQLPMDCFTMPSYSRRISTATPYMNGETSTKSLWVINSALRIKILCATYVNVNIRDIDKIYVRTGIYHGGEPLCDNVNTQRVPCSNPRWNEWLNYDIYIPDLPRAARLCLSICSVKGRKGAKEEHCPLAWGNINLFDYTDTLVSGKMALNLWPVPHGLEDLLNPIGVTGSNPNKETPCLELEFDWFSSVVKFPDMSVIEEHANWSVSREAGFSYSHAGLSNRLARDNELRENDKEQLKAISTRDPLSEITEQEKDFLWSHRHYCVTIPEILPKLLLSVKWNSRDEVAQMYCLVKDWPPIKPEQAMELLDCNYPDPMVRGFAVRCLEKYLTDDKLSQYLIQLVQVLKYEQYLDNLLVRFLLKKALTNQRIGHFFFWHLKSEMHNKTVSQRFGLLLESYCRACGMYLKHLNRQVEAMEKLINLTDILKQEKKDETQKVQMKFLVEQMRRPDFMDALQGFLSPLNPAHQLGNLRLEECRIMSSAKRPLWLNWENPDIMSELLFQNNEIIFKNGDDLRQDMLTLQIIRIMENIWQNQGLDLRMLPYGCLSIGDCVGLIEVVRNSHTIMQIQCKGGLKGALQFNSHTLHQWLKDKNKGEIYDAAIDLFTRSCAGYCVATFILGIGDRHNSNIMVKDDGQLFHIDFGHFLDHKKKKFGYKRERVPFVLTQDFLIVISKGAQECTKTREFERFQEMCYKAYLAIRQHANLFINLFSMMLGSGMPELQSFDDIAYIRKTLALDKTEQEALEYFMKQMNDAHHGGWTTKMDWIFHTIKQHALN
T2 sequence (P27986 whole entry partner, canonical isoform): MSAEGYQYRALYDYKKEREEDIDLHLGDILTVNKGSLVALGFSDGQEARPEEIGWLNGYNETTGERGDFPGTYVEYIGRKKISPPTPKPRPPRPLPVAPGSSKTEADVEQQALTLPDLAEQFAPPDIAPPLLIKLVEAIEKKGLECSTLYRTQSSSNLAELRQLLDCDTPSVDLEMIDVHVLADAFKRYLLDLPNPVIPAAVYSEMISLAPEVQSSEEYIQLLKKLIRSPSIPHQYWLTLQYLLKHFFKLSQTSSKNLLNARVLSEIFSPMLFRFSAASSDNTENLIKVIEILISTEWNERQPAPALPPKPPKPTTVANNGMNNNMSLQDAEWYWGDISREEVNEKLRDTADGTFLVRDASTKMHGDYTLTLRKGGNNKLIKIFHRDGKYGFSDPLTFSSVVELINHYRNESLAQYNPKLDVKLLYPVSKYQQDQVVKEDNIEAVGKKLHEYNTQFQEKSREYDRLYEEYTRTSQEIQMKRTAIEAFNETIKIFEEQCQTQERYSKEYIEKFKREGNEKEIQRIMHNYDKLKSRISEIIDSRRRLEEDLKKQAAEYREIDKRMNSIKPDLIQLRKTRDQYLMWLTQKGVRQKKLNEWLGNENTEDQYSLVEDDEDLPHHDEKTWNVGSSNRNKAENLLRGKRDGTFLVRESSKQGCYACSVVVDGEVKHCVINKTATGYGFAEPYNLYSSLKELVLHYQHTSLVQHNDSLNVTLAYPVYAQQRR
From the text: The PI3-Kinase biochemical assays were developed to measure the intrinsic potency and compound dependent inhibition of the alpha, beta, delta, and gamma PI3K isoform enzymes. This assay was developed and further optimized from a kit produced by Upstate (Millipore catalog #33-047) and has been configured for HTS and SAR screening. Briefly, this procedure exploits the exquisite specificity and high affinity binding of enzyme reaction substrate phosphatidyl(3,4,5)triphosphate (PIP3) to the GRP1 pleckstrin homology (PH) domain to generate the signal. In the absence of PIP3, an HTRF (Homogeneous Time-Resolved Fluorescence energy transfer) complex is formed consisting of europium (Eu)-labeled anti-GST, GSTtagged GRP1-PH domain, biotin-PIP3 and streptavidin conjugated APC. The native PIP3 produced by PI3-Kinase activity disrupts in a competitive manner the biotin-PIP3 from the PH domain, resulting in the loss of energy transfer (HTRF complex) and a decrease in the signal. The format of this assay is the same for all 4 isoforms of PI3K; the differences lie in the concentration of enzyme used to achieve robust assay window. The alpha, beta, and delta assays are run at 0.5, 1, and 0.3 nM enzymes and the gamma assay is run at 5 nM enzyme. The ATP concentration is 100 uM in the alpha, beta, and delta assays and 50 uM ATP in the gamma assay. All reactions are run at 5 uM PIP2.
as §1, §2, §3, §4
The determination of relative selectivity for a given compound is defined as the relative ratio of the (PI3K-alphalC50 value/PI3K-delta IC50 value).

T1 sequence (O00329 whole entry, canonical isoform): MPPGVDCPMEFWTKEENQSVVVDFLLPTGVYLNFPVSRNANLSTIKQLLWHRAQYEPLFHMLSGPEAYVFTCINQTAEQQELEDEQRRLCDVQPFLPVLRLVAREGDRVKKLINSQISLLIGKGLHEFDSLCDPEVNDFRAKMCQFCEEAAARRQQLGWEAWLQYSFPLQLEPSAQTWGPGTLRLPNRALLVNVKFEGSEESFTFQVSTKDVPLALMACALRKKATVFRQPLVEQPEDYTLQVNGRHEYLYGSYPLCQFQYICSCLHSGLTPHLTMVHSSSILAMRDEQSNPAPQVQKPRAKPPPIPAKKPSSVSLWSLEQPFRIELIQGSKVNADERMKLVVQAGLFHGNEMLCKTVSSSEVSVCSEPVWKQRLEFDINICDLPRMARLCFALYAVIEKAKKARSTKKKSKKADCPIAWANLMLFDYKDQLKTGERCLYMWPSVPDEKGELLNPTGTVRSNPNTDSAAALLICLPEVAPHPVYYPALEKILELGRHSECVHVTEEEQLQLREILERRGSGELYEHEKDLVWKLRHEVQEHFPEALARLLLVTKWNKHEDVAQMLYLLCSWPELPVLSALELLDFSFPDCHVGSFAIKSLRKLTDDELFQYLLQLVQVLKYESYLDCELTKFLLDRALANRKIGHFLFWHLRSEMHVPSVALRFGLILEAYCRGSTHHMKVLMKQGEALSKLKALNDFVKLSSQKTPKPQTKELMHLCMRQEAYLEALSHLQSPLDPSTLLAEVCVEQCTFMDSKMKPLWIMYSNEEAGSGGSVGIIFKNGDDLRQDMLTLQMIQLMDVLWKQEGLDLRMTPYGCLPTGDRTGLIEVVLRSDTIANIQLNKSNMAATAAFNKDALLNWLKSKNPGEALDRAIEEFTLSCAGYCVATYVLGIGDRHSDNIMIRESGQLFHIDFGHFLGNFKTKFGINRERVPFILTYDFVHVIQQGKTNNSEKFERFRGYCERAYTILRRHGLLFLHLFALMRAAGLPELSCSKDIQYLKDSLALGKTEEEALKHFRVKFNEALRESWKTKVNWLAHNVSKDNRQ
T1 sequence (P27986 whole entry partner, canonical isoform): as the sequence (P27986 whole entry partner, canonical isoform) above

| IC50 [1] [nM] | Selectivity versus PI3Kalpha [2] | SMILES |
| --- | --- | --- |
| < 1 | >10 | CCn1c(-c2ccc(C(F)(F)F)nc2)nc2c(N[C@H]3CCN(C(=O)N4CCC4)C3)ncnc21 [Compound 12-26, N-[(3S)-1-(azetidin-1-ylcarbonyl)pyrrolidin-3-yl]-9-ethyl-8-[6-(trifluoromethyl)pyridin-3-yl]-9H-purin-6-amine] |
| 8.8 | >10 | CCn1c(-c2cnc(C)nc2)nc2c(N[C@H]3C[C@H](C(=O)NCCN(C)C)N(C(=O)C4CC4)C3)ncnc21 [Compound 15-8, (4S)-1-(cyclopropylcarbonyl)-N-[2-(dimethylamino)ethyl]-4-{[9-ethyl-8-(2-methylpyrimidin-5-yl)-9H-purin-6-yl]amino}-D-prolinamide] |

Source: patent publication US9938281B2 (Merck Sharp & Dohme Corp., priority 2012, dated 2018)
